Where two headings read alike, the source gives them in different places.
How the values were obtained:
Human Cot = Human Cot (Homo sapiens (Human), UniProt P41279); experiment: High Throughput Cot Biochemical Assay
TNFα = experiment: Cot Monocyte TNFα Cell Based Assay
[1] = IC50 HTRF, Cot HTRF (TR-FRET) biochemical assay
[2] = Homo sapiens, Monocyte, read-out: EC50 TNF, LPS-stimulated human monocytes, TNFα
[3] = IC50 HTRF, Cot HTRF (TR-FRET KinEASE) biochemical assay, 400 μM ATP
[4] = Homo sapiens, Monocyte, read-out: EC50 TNF, LPS-stimulated human monocytes, TNFα TR-FRET
[5] = read-out: IC50 HTRF, Cot HTRF (TR-FRET KinEASE) biochemical assay, 400 μM ATP
[6] = read-out: EC50 TNF, LPS-stimulated human monocytes, TNFα TR-FRET

Chain of Human Cot (P41279 30-397): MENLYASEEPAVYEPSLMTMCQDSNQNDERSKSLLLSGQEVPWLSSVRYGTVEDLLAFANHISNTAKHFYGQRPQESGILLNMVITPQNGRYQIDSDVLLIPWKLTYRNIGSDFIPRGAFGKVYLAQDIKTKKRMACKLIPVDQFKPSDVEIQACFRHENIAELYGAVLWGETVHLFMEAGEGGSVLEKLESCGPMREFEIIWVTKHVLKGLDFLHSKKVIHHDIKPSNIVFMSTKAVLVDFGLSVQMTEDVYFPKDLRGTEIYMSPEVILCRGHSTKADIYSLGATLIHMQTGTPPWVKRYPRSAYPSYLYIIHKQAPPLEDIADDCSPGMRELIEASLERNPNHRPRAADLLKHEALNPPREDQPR

COC[C@H](Nc1c(C#N)cnc2c(Cl)cc(N[C@@H](c3cccnc3)c3cn(C(C)C)nn3)cc12)c1ccccc1 [Example 204, 8-chloro-6-(((S)-(1-isopropyl-1H-1,2,3-triazol-4-yl)(pyridin-3-yl)methyl)amino)-4-(((R)-2-methoxy-1-phenylethyl)amino)quinoline-3-carbonitrile]
IC50 (Human Cot; [1]): 8510 nM
EC50 (TNFα; [2]): > 10000 nM

Cc1nc(F)ccc1[C@H](Nc1cc(C#N)c2ncc(C#N)c(NCC(C)(C)C(F)(F)F)c2c1)c1nnn(C23CC(C2)C3)c1F [Example 861, (S)-6-(((1-(bicyclo[1.1.1]pentan-1-yl)-5-fluoro-1H-1,2,3-triazol-4-yl)(6-fluoro-2-methylpyridin-3-yl)methyl)amino)-4-((3,3,3-trifluoro-2,2-dimethylpropyl)amino)quinoline-3,8-dicarbonitrile]
IC50 (Human Cot; [3]): 7 nM
EC50 (TNFα; [4]): 40 nM

Cc1nc(F)ccc1[C@H](Nc1cc(F)c2ncc(C#N)c(NCC(C)(C)C)c2c1)c1cn(C2(C(F)(F)F)CC2)nn1 [Example 513, (S)-8-fluoro-6-(((6-fluoro-2-methylpyridin-3-yl)(1-(1-(trifluoromethyl)cyclopropyl)-1H-1,2,3-triazol-4-yl)methyl)amino)-4-(neopentylamino)quinoline-3-carbonitrile]
IC50 (Human Cot; [1]): 9 nM
EC50 (TNFα; [2]): 154 nM

Cn1ccc2c([C@H](Nc3cc(Cl)c4ncc(C#N)c(NCC5(C(F)(F)F)CCC5)c4c3)c3cn(C4(C(F)F)CC4)nn3)cccc2c1=O [Example 730, (S)-8-chloro-6-(((1-(1-(difluoromethyl)cyclopropyl)-1H-1,2,3-triazol-4-yl)(2-methyl-1-oxo-1,2-dihydroisoquinolin-5-yl)methyl)amino)-4-(((1-(trifluoromethyl)cyclobutyl)methyl)-amino)quinoline-3-carbonitrile]
IC50 (Human Cot; [1]): 10 nM
EC50 (TNFα; [2]): 89 nM

Cc1nc(F)ccc1[C@H](Nc1cc(Cl)c2ncc(C#N)c(NCC(C)(C)C)c2c1)c1nnn(C2CC2)c1Cl [Example 662, (S)-8-chloro-6-(((5-chloro-1-cyclopropyl-1H-1,2,3-triazol-4-yl)(6-fluoro-2-methylpyridin-3-yl)methyl)amino)-4-(neopentylamino)quinoline-3-carbonitrile]
IC50 (Human Cot; [1]): 6 nM
EC50 (TNFα; [2]): 335 nM

CC(C)n1cc([C@@H](Nc2cc(Cl)c3ncc(C#N)c(Nc4ccc(F)c(Cl)c4)c3c2)c2cscn2)nn1 [Example 357, (S)-8-chloro-4-((3-chloro-4-fluorophenyl)amino)-6-(((1-isopropyl-1H-1,2,3-triazol-4-yl)(thiazol-4-yl)methyl)amino)quinoline-3-carbonitrile]
IC50 (Human Cot; [1]): 5 nM
EC50 (TNFα; [2]): 235 nM

Cc1nc(F)ccc1[C@H](Nc1cc(Cl)c2ncc(C#N)c(NCC34CC(C3)C4)c2c1)c1cn(C2(C(F)F)CC2)nn1 [Example 739, (S)-4-((bicyclo[1.1.1]pentan-1-ylmethyl)amino)-8-chloro-6-(((1-(1-(difluoromethyl)cyclopropyl)-1H-1,2,3-triazol-4-yl)(6-fluoro-2-methylpyridin-3-yl)methyl)amino)quinoline-3-carbonitrile]
IC50 (Human Cot; [1]): 21 nM
EC50 (TNFα; [2]): 254 nM

CC(C)(C)CNc1c(C#N)cnc2c(C#N)cc(N[C@H](c3cn(C4(C(F)(F)F)CC4)nn3)c3cccc4cnc(C#N)cc34)cc12 [Example 909, (S)-6-(((3-cyanoisoquinolin-5-yl)(1-(1-(trifluoromethyl)cyclopropyl)-1H-1,2,3-triazol-4-yl)methyl)amino)-4-(neopentylamino)quinoline-3,8-dicarbonitrile]
IC50 (Human Cot; [3]): 8 nM
EC50 (TNFα; [4]): 116 nM

Cc1nc(F)ccc1[C@H](Nc1cc(Cl)c2ncc(C#N)c(NCC(C)(C)C)c2c1)c1cn(C2(C(=O)N3CCCC3)CC2)nn1 [Example 554, (S)-8-chloro-6-(((6-fluoro-2-methylpyridin-3-yl)(1-(1-(pyrrolidine-1-carbonyl)cyclopropyl)-1H-1,2,3-triazol-4-yl)methyl)amino)-4-(neopentylamino)quinoline-3-carbonitrile]
IC50 (Human Cot; [1]): 5 nM
EC50 (TNFα; [2]): 151 nM

COc1nccc2c([C@H](Nc3cc(Cl)c4ncc(C#N)c(NCC(C)(C)C)c4c3)c3cn(C4(C(F)(F)F)CC4)nn3)cccc12 [Example 929, (S)-8-chloro-6-(((1-methoxylsoquinolin-5-yl)(1-(1-(trifluoromethyl)cyclopropyl)-1H-1,2,3-triazol-4-yl)methyl)amino)-4-(neopentylamino)quinoline-3-carbonitrile]
IC50 (Human Cot; [5]): 11 nM
EC50 (TNFα; [6]): 157 nM

CC(C)n1cc([C@@H](Nc2cc(Cl)c3ncc(C#N)c(Nc4ccc(F)c(Cl)c4)c3c2)c2cnco2)nn1 [Example 298, (R)-8-chloro-4-((3-chloro-4-fluoro-phenyl)amino)-6-(((1-isopropyl-1H-1,2,3-triazol-4-yl)(oxazol-5-yl)methyl)-amino)quinoline-3-carbonitrile]
IC50 (Human Cot; [1]): 39 nM
EC50 (TNFα; [2]): 1500 nM

N#Cc1cnc2c(Cl)cc(N[C@@H](c3cccnc3)c3c[nH]nn3)cc2c1Nc1cccc(Cl)c1F [Example 257, (S)-8-chloro-4-((3-chloro-2-fluorophenyl)amino)-6-((pyridin-3-yl(1H-1,2,3-triazol-4-yl)methyl)-amino)quinoline-3-carbonitrile]
IC50 (Human Cot; [1]): 6 nM
EC50 (TNFα; [2]): 212 nM

CC[C@@H](Nc1c(C#N)cnc2c(Cl)cc(N[C@@H](c3cccnc3)c3cn(C4CCN(C(C)(C)C)CC4)nn3)cc12)c1ccccc1 [Example 258]
IC50 (Human Cot; read-out: IC50 HTRF, Cot HTRF (TR-FRET) biochemical assay): 2 nM
EC50 (TNFα; read-out: EC50 TNF, LPS-stimulated human monocytes, TNFα): 33 nM

Cc1nc(F)ccc1[C@H](Nc1cc(Cl)c2ncc(C#N)c(NCC(C)(C)C)c2c1)c1cn(C(CF)CF)nn1 [Example 762, (S)-8-chloro-6-(((1-(1,3-difluoropropan-2-yl)-1H-1,2,3-triazol-4-yl)(6-fluoro-2-methylpyridin-3-yl)methyl)amino)-4-(neopentylamino)quinoline-3-carbonitrile]
IC50 (Human Cot; [1]): 3 nM
EC50 (TNFα; [2]): 50 nM

Cc1nc(F)ccc1[C@H](Nc1cc(Cl)c2ncc(C#N)c(NCC34CC(C3)C4)c2c1)c1cn(C2(C(F)(F)F)CC2)nn1 [Example 740, (S)-4-((bicyclo[1.1.1]pentan-1-ylmethyl)amino)-8-chloro-6-(((6-fluoro-2-methylpyridin-3-yl)(1-(1-(trifluoromethyl)cyclopropyl)-1H-1,2,3-triazol-4-yl)methyl)amino)quinoline-3-carbonitrile]
IC50 (Human Cot; [1]): 45 nM
EC50 (TNFα; [2]): 311 nM

COc1nccc2c([C@H](Nc3cc(C#N)c4ncc(C#N)c(NCC(C)(C)C)c4c3)c3cn(C(CF)CF)nn3)cccc12 [Example 825, (S)-6-(((1-(1,3-difluoropropan-2-yl)-1H-1,2,3-triazol-4-yl)(1-methoxylsoquinolin-5-yl)methyl)amino)-4-(neopentylamino)quinoline-3,8-dicarbonitrile]
IC50 (Human Cot; [5]): 7 nM
EC50 (TNFα; [6]): 113 nM

Cn1cnc2c([C@H](Nc3cc(Cl)c4ncc(C#N)c(NCC(C)(C)C)c4c3)c3cn(C4(C(F)(F)F)CC4)nn3)cccc21 [Example 520, (S)-8-chloro-6-(((1-methyl-1H-benzo[d]imidazol-4-yl)(1-(1-(trifluoromethyl)cyclopropyl)-1H-1,2,3-triazol-4-yl)methyl)amino)-4-(neopentylamino)quinoline-3-carbonitrile]
IC50 (Human Cot; [1]): 123 nM
EC50 (TNFα; [2]): 926 nM

— patent publication US11066414B2, “Cot modulators and methods of use thereof” (Gilead Sciences, Inc., priority 2015, dated 2021)
